Measurements reported in PubChem BioAssay AID449760 (The Scripps Research Institute Molecular Screening Center, 2010).
“And” between values parts separate entries of the source, which are not always exact repeats. Equal entries are not always repeated. The source made the active and inactive calls. How the calls were made is not given here.

tested on: NIH 3T3 STAT1-luciferase reporter, IFNg-stimulated, luminescence; test: STAT1 reporter activators, provider retest, late-stage follow-up, cell-based, luminescence, NIH 3T3, assay provider (AID 449760); details: at 10 µM; hits give high values

| Structure (SMILES) | fold change vs IFNg |
| --- | --- |
| COc1ccc(-c2csc(N3C(=O)CNC3=S)n2)cc1 | 1.19 (inactive) |
| CC(=O)NC(=S)Nc1sc2c(c1C#N)CCCCC2 | 0.45 (inactive) |
| CCN(CC)c1ccc2cc(C(=O)Nc3ccccn3)c(=O)oc2c1 | 0.41 (inactive) |
| O=C(/C=C/Nc1ccccc1F)c1ccc(Br)cc1 | 0.87 (inactive) |
| Cc1cc(-c2ccc(F)cc2)n2ncc(-c3ccccc3)c2n1 | 0.09 (inactive) |
| CCOC(=O)/C(C#N)=C/c1cc(C)n(-c2ccccc2)c1C | 0.028 (inactive) |
| COc1ccc(-c2cc(C)nc3c(-c4ccccc4)cnn23)cc1 | 0.36 (inactive) and 0.19 (inactive) |
| Cc1nnc(SCC(=O)Nc2ccc(-c3nc4ccccc4s3)cc2)s1 | 1 (inactive) |
| Cc1ccc(C(=O)Nc2nc3ccccc3s2)s1 | 1.22 (inactive) |
| COc1ccc2[nH]c3c(c2c1)CCn1c-3nc2ccccc2c1=O | 0.94 (inactive) |
| O=C(Nc1nc2ccccc2s1)c1cc2ccccc2s1 | 1.02 (inactive) |
| N#C/C(=C\c1ccc(N2CCOCC2)o1)c1nc2ccccc2[nH]1 | 0.94 (inactive) |
